Source: patent US6664088B2, “Production of vanillin” (Plant Bioscience Limited, priority 1996, dated 2003)
Like-named read-outs stand apart in the source and are kept apart here.

Key:
[1] = biological target: T1, trans-feruloyl SCoA hydratase/aldol cleavage enzyme (Pseudomonas fluorescens, UniProt O69762); assay: trans-feruloyl SCoA hydratase/aldol cleavage enzyme activity, reaction products by HPLC; format: biochemical; conditions: 30° C., 0.4 mM substrate, 2.8 μg enzyme partially purified by Mono-Q and Mono-P
T1 construct: Purification from cells of Ps. fluorescens biovar V, strain AN103, was; endogenous in cells; host or cells: Ps. fluorescens biovar; V strain AN103 grown on trans-ferulate (crude extract, then Mono Q, Mono P, PhenylSuperose); also crude extract of E. coli JM109(DE3) with the gene in pSP72
T1 sequence (O69762 2-276): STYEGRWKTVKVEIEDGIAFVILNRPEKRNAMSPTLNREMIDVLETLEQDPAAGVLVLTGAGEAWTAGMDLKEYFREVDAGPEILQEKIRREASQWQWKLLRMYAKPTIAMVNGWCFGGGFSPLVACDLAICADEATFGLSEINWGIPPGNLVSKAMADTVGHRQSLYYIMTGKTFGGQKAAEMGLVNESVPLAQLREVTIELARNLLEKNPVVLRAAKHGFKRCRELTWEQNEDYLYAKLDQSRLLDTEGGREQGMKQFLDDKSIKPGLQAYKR
Method: At each stage of purification, active fractions were detected by a micro-adaptation of the assay with HMPHP SCoA described above (Example 2); reactions were performed in 100 μl of reaction mixture for ca. 4 min at room temperature in microtitre wells and absorbance was then measured in an MR 5000 microtitre plate reader (Dynatech, Guernsey, Channel Islands), equipped with a 340 nm filter. The activity of the pooled fractions was measured using HPLC to determine the reaction products of both HMPHP SCoA, (0.4 mM) and trans-feruloyl SCoA (0.28 mM) as substrates. […] The proportionality of the reactions with time and with quantity of enzyme was established in preliminary determinations.
E. coli cells were grown at 37° C. for 3 h in 50 ml of L medium, containing ampicillin (50 μg/ml) with and without induction by IPTG. Extracts were prepared as described above in Example 2 for Ps. fluorescens AN103, but without centrifugation. The crude extract was used for assay. Enzyme activity with both HMPHP SCoA and trans-feruloyl ScoA was determined as described above in Example 4 using HPLC to determine the reaction products. […] There was no activity with either trans-feruloyl SCoA or HMPHP SCoA in extracts of an unmanipulated E. coli strain, whether induced or not. In the manipulated strain E. coli 1039 that expresses the Pseudomonas gene the specific activity was slightly lower in the exLract made following induction than in that made from uninduced bacteria. […] It was not possible to detect expression of the 31 kD protein visually on Coomassie-stained, one-dimensional SDS gels because of its co-migration with the strongly expressed β-lactamase encoded by the vector ampicillin resistance marker.

[2] = test system: enzyme activities I, II and III from Ps. fluorescens biovar V, strain AN103; assay: Use of cinnamates as substrates by enzyme activities I, II and III; format: biochemical, Pseudomonas fluorescens; conditions: AN103 enzymes
[3] = test system: Ps. fluorescens biovar. V, strain AN103; assay: Relative growth of strain AN103 on a range of carbon substrates (absorbance at 600 nm); format: cell-based, Pseudomonas fluorescens; conditions: for activity at 10000 µM: read-out: Relative Growth (%)
Method: KH2PO4, 5 g; […] FeSO4, 0.5 mg; CaCl2, 0.5 mg; MnCl2.5H2O, 5 mg; (NH4)6Mo2O7.4H2O, 1.1 mg; MgSO4, 5 mg; EDTA, 50 mg; […] The pH was 7.0. Carbon sources were included as indicated. […] Growth was monitored by measuring absorbance at 550 or 600 nm. [table]

[4] = test system: cell-free extract of strain AN103; assay: Incubation of CoASH thioesters with cell-free extract; format: biochemical, Pseudomonas fluorescens
Method: (§1) Cell-free extracts were routinely incubated at 30° C. and pH 7.5 in a reaction mixture (1 ml) containing 90 mM Tris HCl buffer and 2.5 mM MgCl2, together with (as appropriate) 0.5 mM trans-ferulic acid, 0.2 mM CoASH (Li salt) and 2.5 mM ATP. This complete reaction mixture constituted an assay for trans-ferulate: CoASH ligase, where the initial increase in absorbance at 345 nm was monitored against a blank reaction mixture from which CoASH was omitted. Incubations with HMPHP SCoA (generally 0.4 mM) were performed similarly, but with the omission of trans-ferulic acid, CoASH and ATP.
Metabolites of trans-ferulic acid, including the CoASH thioesters, were analysed and quantitated by HPLC using a Lichrosorb RP-18 column (20 cm×4.6 mm; Capital HPLC, Broxburn, West Lothian, UK) with a multiphasic gradient; solvent “A” was 20 mM NaOAc, adjusted to pH 6.0 and solvent“B” was MeOH; the flow rate was 1.2 ml/min; the proportion of solvent “B” rose linearly from 0% at 0 min to 10% at 15 min and thence to 50% at 40 min and 70% at 45 min, finally decreasing to 0% at 50 min. Detection was with a Spectra Focus detector (Thermo Separation Products, Stone, Staffs. UK), which permitted u/v spectral analysis of each eluting component.

[5] = biological target: T2, Vanillin: NAD+ oxidoreductase (Pseudomonas fluorescens, UniProt O69763); assay: Vanillin:NAD+ oxidoreductase assay, decrease in absorbance at 340 nm; format: biochemical; conditions: gene expressed in E. coli strain DH5 from pUC18
T2 construct: endogenous in cells; host or cells: Ps. fluorescens AN103 / van 1 / van 10 cell-free extracts; also E. coli DH5 carrying pUC18 with the full-length ORF
T2 sequence (O69763 whole entry): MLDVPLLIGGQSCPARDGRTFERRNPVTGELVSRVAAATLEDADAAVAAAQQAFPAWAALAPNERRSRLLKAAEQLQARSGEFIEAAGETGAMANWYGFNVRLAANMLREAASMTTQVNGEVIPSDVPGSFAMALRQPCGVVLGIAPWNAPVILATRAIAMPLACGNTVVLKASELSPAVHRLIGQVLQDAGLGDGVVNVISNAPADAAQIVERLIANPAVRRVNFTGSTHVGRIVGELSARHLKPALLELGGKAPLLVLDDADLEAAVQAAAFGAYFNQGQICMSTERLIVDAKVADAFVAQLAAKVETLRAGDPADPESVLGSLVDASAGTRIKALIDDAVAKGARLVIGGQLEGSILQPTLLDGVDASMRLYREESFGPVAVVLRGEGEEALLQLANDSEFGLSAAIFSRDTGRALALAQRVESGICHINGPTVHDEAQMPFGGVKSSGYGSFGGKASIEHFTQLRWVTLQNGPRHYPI
Method: Vanillin: NAD^+ oxidoreductase was assayed at 30° C. and pH 7.0 by monitoring the initial decrease in absorbance at 340 nm against a blank cuvette from which NAD^+ was omitted. Because of the similarity in extinction coefficient at 340 nm for vanillin and for NADH, the sensitivity of the assay was increased by catalysing the regeneration of NADH to NAD^+ by providing lactate dehydrogenase and pyruvate. Reaction mixtures contained, in 1 ml volume, 75 mM KPi buffer, pH 7.0, 0.125 mM vanillin, 1.2 mM Na pyruvate, lactate dehydrogenase (rabbit muscle), 1.1 U and NAD^+, 0.5 mM.
In order to confirm the function of this gene, expression was determined in E. coli strain DH5, which contained the vector pUC18 into which the full-length open reading frame had been inserted such that expression was from the lac promoter on the vector. Vanillin: NAD^+ oxidoreductase activity was confirmed and was absent from a control strain bearing the unmodified pUC 18 vector. Using the enzyme assay described in Example 2, activity with vanillin as substrate was determined as 3.0 nkat/mg of protein; activity with salicylaldehyde was 2.8 nkat/mg.

[6] = test system: trans-ferulate: CoASH ligase; assay: trans-ferulate:CoASH ligase assay, initial increase in absorbance at 345 nm; format: biochemical, Pseudomonas fluorescens; conditions: crude extracts of Ps. fluorescens AN103; initial rate at absorbance maximum of the SCoA thioester
Method: as §1

[7] = substrate 10 mM on MM Medium, 48 h at 25° C., absorbance at 600 nm
[8] = Pseudomonas fluorescens, substrate 10 mM on MM Medium, 48 h at 25° C., absorbance at 600 nm

CC(C)(COP(=O)(O)OP(=O)(O)OC[C@H]1O[C@@H](n2cnc3c(N)ncnc32)[C@H](O)[C@@H]1OP(=O)(O)O)[C@@H](O)C(=O)NCCC(=O)NCCSC(=O)/C=C/c1ccc(O)c(O)c1 (relative stereo) [Caffeoyl SCoA, trans-caffeoyl SCoA]
Activity, utilisation of trans-p-hydroxycinnamoyl SCoA thioester [1]: 0.36 nkat/mg of protein

COc1cc(C=CC(=O)SCCNC(=O)CCNC(=O)[C@H](O)C(C)(C)COP(=O)(O)OP(=O)(O)OC[C@H]2O[C@@H](n3cnc4c(N)ncnc43)[C@H](O)[C@@H]2OP(=O)(O)O)ccc1O (relative stereo) [Feruloyl SCoA, trans-feruloyl SCoA]
Activity, utilisation of trans-p-hydroxycinnamoyl SCoA thioester [1]: 0.60 nkat/mg of protein

CC(C)(COP(=O)(O)OP(=O)(O)OC[C@H]1O[C@@H](n2cnc3c(N)ncnc32)[C@H](O)[C@@H]1OP(=O)(O)O)[C@@H](O)C(=O)NCCC(=O)NCCSC(=O)/C=C/c1ccc(O)cc1 (relative stereo) [p-Coumaroyl SCoA, trans-4-coumaroyl SCoA]
Activity, utilisation of trans-p-hydroxycinnamoyl SCoA thioester [1]: 0.72 nkat/mg of protein

O=C(O)/C=C/c1ccc2c(c1)OCO2 [3,4-methylenedioxy-trans-cinnamate]
Use as substrate by enzyme activities I, II and III [2]: poor substrates

CC(=O)O [Acetate]
Relative Growth (%) [3, 7]: 47%

O=C(O)/C=C/c1ccc(O)c(O)c1 [Caffeic acid, 3,4-dihydroxy-trans-cinnamate]
activity at 10000 µM [3, 8]: 79%

O=C(O)C=Cc1ccccc1 [Cinnamic acid]
activity at 10000 µM [3, 8]: 0%
Use as substrate by enzyme activities I, II and III [2]: poor substrates

COc1cc(/C=C/C(=O)O)ccc1O [Ferulic acid, 4-hydroxy-3-methoxy-trans-cinnamate]
activity at 10000 µM [3, 8]: 100%

COc1cc(C(O)CC(=O)SCCNC(=O)CCNC(=O)[C@H](O)C(C)(C)COP(=O)(O)OP(=O)(O)OC[C@H]2O[C@@H](n3cnc4c(N)ncnc43)[C@H](O)[C@@H]2OP(=O)(O)O)ccc1O (stereo partly drawn) [HMPHP SCoA, 4-hydroxy-3-methoxyphenyl-β-hydroxypropionyl SCoA]
Metabolism by cell-free extract ([4]; incubated with cell-free extract, absence of NAD+): converted rapidly to acetyl SCoA and vanillin, in equimolar proportions

CO [Methanol]
activity at 10000 µM ([3]; Pseudomonas fluorescens, 48 h): 0%

O=C(O)c1ccc(O)c(O)c1 [Protocatechuic acid]
activity at 10000 µM ([3]; Pseudomonas fluorescens, 48 h): 77%

O=Cc1ccc(O)c(O)c1 [Protocatechuic aldehyde]
Relative Growth (%) [3, 7]: 0%

COc1cc(/C=C/C(=O)O)cc(OC)c1O [Sinapic acid]
activity at 10000 µM [3, 8]: 0%

COc1cc(C(=O)O)ccc1O [Vanillic acid]
activity at 10000 µM [3, 8]: 140%

COc1cc(C=O)ccc1O [Vanillin, 4-hydroxy-3-methoxybenzaldehyde]
activity at 1000 µM ([3]; Pseudomonas fluorescens, vanillin 1 mM on MM Medium, 48 h at 25° C., absorbance at 600 nm): < 100%
Effect on growth of strain AN103 ([3]; concentrations higher than the low concentrations (<1 mM)): growth-inhibitory
Activity as substrate of vanillin:NAD+ oxidoreductase [5]: 3.0 nkat/mg of protein

O=C(O)/C=C/c1ccc(O)cc1 [p-Coumarate, 4-hydroxy-trans-cinnamate]
Activity, formation of CoASH thioester [6]: 0.37 nkat/mg protein
Use as substrate by enzyme activities I, II and III [2]: reasonable efficiency

O=Cc1ccccc1O [salicylaldehyde]
Activity as substrate of vanillin:NAD+ oxidoreductase [5]: 2.8 nkat/mg

COc1cc(C(=O)SCCNC(=O)CCNC(=O)[C@H](O)C(C)(C)COP(=O)(O)OP(=O)(O)OC[C@H]2O[C@@H](n3cnc4c(N)ncnc43)[C@H](O)[C@@H]2OP(=O)(O)O)ccc1O [vanilloyl SCoA, 4hydroxy-3-methoxybenzoyl SCoA]
Metabolism to vanillin by cell-free extracts ([4]; in the presence of NADH): not to be metabolised to vanillin
